Patent US8940775B2, “Use of derivatives of pentaphyrine as antimicrobial and disinfectant agents” (Universita' Degli Studi di Udine, priority 2010, dated 2015)
Values joined by “and” are separate entries in the source; they are usually repeats but may differ in a detail not shown here. Equal values may be shown once.

Assays:
Type in all cases: cell-based
[1] = system: S. aureus ATCC 6538; assay: Photo-oxidation test, antibacterial activity on S. aureus; conditions: for Percentage bacterial load die-off: initial 10^8 CFU/ml S. aureus, 100 W lamp, 40 W/m^2
Protocol: (§1) The bacterial strains used in the photo-oxidation tests are S. aureus ATCC 6538 and E. hirae ATCC 10541. The bacterial culture in exponential phase is obtained by inoculation in 10 mL of Nutrient Broth No. 2 and incubation at 37° C. Next the culture is centrifuged for 15 minutes at 3200 rpm and the pellet is resuspended in PBS 0.01 M in order to obtain a bacterial concentration equal to about 10^8 CFU/mL (Abs600≈0.1). This suspension was used for the photo-oxidation tests in the conditions described hereunder.
The photo-oxidative treatment was carried out using various light sources: • Lamp A: 100 W incandescent lamp, able to irradiate the bacterial suspension with a fluence rate equal to 40 W/m^2. The […] component of the luminous radiation is removed by filtering the light through a layer of water equal to 0.5 cm; • Lamp B: blue LED lamp, with maximum emission at 473 nm, connected to a power supply that controls its fluence rate between 24 and 50 W/m^2; • Lamp C: lamp with blue LED, with maximum emission at 473 nm, with a fluence rate equal to 10 W/m^2; • Lamp D: lamp with red LED, with maximum emission at 635 nm, with a fluence rate equal to 10 W/m^2.
(§2) The luminous intensity supplied by the light sources was evaluated by radiometer (DeltaOhm HD 2302.0 equipped with LP 471 RAD sensor).
The photo-oxidation tests were performed on a culture volume equal to 1 mL, using a plate with 48 wells with diameter of 1 cm and capacity of 1.5 mL. The multi-well plate is positioned above a magnetic stirrer and under the light source. A volume of a 330 μM solution of PCCox in DMSO is added to the bacterial suspension in order to obtain various concentrations of the photosensitizer (0.05 μM, 0.5 μM, 5 μM and 20 μM). The solution is stirred by small magnetic anchors throughout the treatment. The intrinsic toxicity, i.e. the toxicity not induced by the light, of the PCCox was evaluated on bacterial cultures of S. aureus and E. hirae incubated for 60 minutes in the dark with various concentrations of PCCox: in FIG. 3 are reported the results obtained on S. aureus; similar results were obtained with E. hirae. The percentage of DMSO present in the culture treated never exceeds 6%. […] In FIG. 4 are reported the results obtained with E. hirae; similar results were obtained with S. aureus.
The duration of the treatment is different for S. aureus (15, 30 and 60 minutes) and E. hirae (60 and 120 minutes).
The influence of a step of incubation of the bacterial culture in the dark in the presence of the molecule was evaluated before the irradiation step. In FIG. 5 are reported the results obtained with S. aureus.
At each time interval, a volume of bacterial suspension of 100 μL is taken and is diluted in PBS 0.01 M using an optimum dilution factor for the bacterial culture. From each dilution, 100 μL of bacterial suspension is taken (1000 μL is taken from the samples of primary effluent), seeded in MSA medium for S. aureus and Mf-Enterococcus Selective Agar for E. hirae on Petri dishes and incubated in the dark at 37° C. for 18-24 hours. The same procedure is carried out for the control samples, used for testing the activity of PCCox in the dark and the vitality of the bacterial suspension, without photosensitizer, exposed to the light or incubated in the dark. These samples are analysed at the end of the treatment. Each test is carried out at least in triplicate, and the survival data in terms of CFU/mL are expressed as the mean and standard deviation. The percentage survival is calculated respect to the concentration of bacteria measured on the control sample exposed to the light, analysed at the end of the test.

[2] = system: S. aureus; assay: Intrinsic toxicity of PCCox in the dark on bacterial cultures; conditions: no light activation
Protocol: FIG. 3. Toxicity test of the pentaphyrine PCCox evaluating the vitality of a bacterial culture of S. aureus incubated for 60 minutes in the dark with various concentrations of 20-(4-carboxyphenyl)-2,13-dimethyl-3,12-diethyl-[22] pentaphyrine (PCCox) (0.05 μM, 0.5 μM and 5 μM).
The photo-oxidation tests were performed on a culture volume equal to 1 mL, using a plate with 48 wells with diameter of 1 cm and capacity of 1.5 mL. The multi-well plate is positioned above a magnetic stirrer and under the light source. A volume of a 330 μM solution of PCCox in DMSO is added to the bacterial suspension in order to obtain various concentrations of the photosensitizer (0.05 μM, 0.5 μM, 5 μM and 20 μM). […] The intrinsic toxicity, i.e. the toxicity not induced by the light, of the PCCox was evaluated on bacterial cultures of S. aureus and E. hirae incubated for 60 minutes in the dark with various concentrations of PCCox: in FIG. 3 are reported the results obtained on S. aureus; similar results were obtained with E. hirae. […]
At each time interval, a volume of bacterial suspension of 100 μL is taken and is diluted in PBS 0.01 M using an optimum dilution factor for the bacterial culture. […] These samples are analysed at the end of the treatment. Each test is carried out at least in triplicate, and the survival data in terms of CFU/mL are expressed as the mean and standard deviation. […]

[3] = system: Gram-positive bacterial population of the genus Enterococcus; assay: Photo-oxidation test on primary effluent of a purification plant; conditions: PCCox 20 μM
Protocol: FIG. 12. Photo-oxidation test for evaluating the antibacterial activity of the pentaphyrine PCCox (concentration of solution 20 μM) on a real sample, in this case primary effluent of a purification plant for treating municipal waste. The activity of PCCox was evaluated with respect to the Gram-positive bacterial population of the genus Enterococcus, which is present in the sample treated at a concentration equal to 10^4 CFU/mL. The test was carried out with a source of blue light (473 nm) at a luminous intensity equal to 50 W/m^2. The percentage survival of enterococci following treatment with PCCox, in the experimental conditions, is equal to 31%. […]
(§3) The photo-oxidation tests were performed on a culture volume equal to 1 mL, using a plate with 48 wells with diameter of 1 cm and capacity of 1.5 mL. […] The intrinsic toxicity, i.e. the toxicity not induced by the light, of the PCCox was evaluated on bacterial cultures of S. aureus and E. hirae incubated for 60 minutes in the dark with various concentrations of PCCox: in FIG. 3 are reported the results obtained on S. aureus; similar results were obtained with E. hirae. […]
(§4) At each time interval, a volume of bacterial suspension of 100 μL is taken and is diluted in PBS 0.01 M using an optimum dilution factor for the bacterial culture. […] These samples are analysed at the end of the treatment. […]

[4] = system: E. hirae ATCC 10541; assay: Photo-oxidation test, antibacterial activity on E. hirae; conditions: PCCox 20 μM; 120 min of illumination with lamp B at 50 W/m2; preliminary tests
Protocol: as §1, with “hereunder. […]” for “hereunder.”
as §2, §3, §4

CCC1=C(C)c2cc3nc(c(-c4ccc(C(=O)O)cc4)c4ccc(cc5nc(cc6ccc(cc1n2)[nH]6)C(CC)=C5C)[nH]4)C=C3 [PCCox, 20-(4-carboxyphenyl)-2,13-dimethyl-3,12-diethyl-[22] pentaphyrine]
Percentage bacterial load die-off ([1]; PCCox 0.05 μM, 15 min): 99.77% | Percentage bacterial load die-off ([1]; PCCox 0.05 μM, 30 min): 99.9% and 99.89% | bacterial load die-off ([1]; PCCox 0.05 μM, 30 min of treatment, lamp A): 3 log | Percentage bacterial load die-off ([1]; PCCox 0.05 μM, 60 min): 99.97% | Percentage bacterial load die-off ([1]; PCCox 0.5 μM, 15 min): 100% | Percentage bacterial load die-off ([1]; PCCox 0.5 μM, 30 min): 99.99% | Percentage bacterial load die-off ([1]; PCCox 0.5 μM, 60 min): 100% | Percentage bacterial load die-off ([1]; PCCox 5 μM, 15 min): 99.9988% | Percentage bacterial load die-off ([1]; PCCox 5 μM, 30 min): 100% | Percentage bacterial load die-off ([1]; PCCox 5 μM, 60 min): 100% | die-off ([1]; PCCox 5 μM, 60 min with lamp A (100 W, 40 W/m^2), initial load 10^11-10^13 CFU/ml): 10 log | die-off ([1]; PCCox 5 μM, blue LED, maximum emission 473 nm, fluence rate between 24 and 50 W/m^2): 10 log | bactericidal effect ([1]; PCCox 5 μM, lamp C blue LED at 10 W/m^2, 60 min of illumination, pre-incubation 1 h in the dark): 3 log | influence of incubation time on bactericidal efficiency ([1]; PCCox 5 μM, with or without pre-incubation in the dark for 1 h, blue light 24 W/m^2): not influenced in any way by the incubation time | initial bacterial load destroyed ([1]; PCCox 5 μM, within 15 min of exposure to the light, initial load 10^8-10^13 CFU/ml): 99.999% | bactericidal effect (phototoxic efficacy) ([1]; white light (lamp A, 40 W/m^2), after 15 min of irradiation): 5 log | bactericidal activity in the dark [2]: does not have bactericidal activity in the dark | percentage survival of enterococci ([3]; primary effluent, 10^4 CFU/mL, blue light 473 nm, 50 W/m^2): 31% | die-off ([3]; primary wastewater, in terms of E. hirae, blue light 50 W/m^2): up to 70% | die-off [4]: 4 log
